In paper PMC4685510, “A Cell Biologist’s Field Guide to Aurora Kinase Inhibitors” (Frontiers in Oncology, 2015):

Assays:
Assay in all cases: biochemical
Assay type in all cases: biochemical
[1] = biological target: T1, 363 human kinases (including Aurora A/B/C) (Homo sapiens, UniProt O75385); conditions: ULK1; for remaining activity at 0.1 µM: 100 nM; for remaining activity at 0.1 µM / remaining activity at 0.5 µM: read-out: % Enzyme Activity (relative to DMSO controls)
T1 sequence (O75385 1-1050): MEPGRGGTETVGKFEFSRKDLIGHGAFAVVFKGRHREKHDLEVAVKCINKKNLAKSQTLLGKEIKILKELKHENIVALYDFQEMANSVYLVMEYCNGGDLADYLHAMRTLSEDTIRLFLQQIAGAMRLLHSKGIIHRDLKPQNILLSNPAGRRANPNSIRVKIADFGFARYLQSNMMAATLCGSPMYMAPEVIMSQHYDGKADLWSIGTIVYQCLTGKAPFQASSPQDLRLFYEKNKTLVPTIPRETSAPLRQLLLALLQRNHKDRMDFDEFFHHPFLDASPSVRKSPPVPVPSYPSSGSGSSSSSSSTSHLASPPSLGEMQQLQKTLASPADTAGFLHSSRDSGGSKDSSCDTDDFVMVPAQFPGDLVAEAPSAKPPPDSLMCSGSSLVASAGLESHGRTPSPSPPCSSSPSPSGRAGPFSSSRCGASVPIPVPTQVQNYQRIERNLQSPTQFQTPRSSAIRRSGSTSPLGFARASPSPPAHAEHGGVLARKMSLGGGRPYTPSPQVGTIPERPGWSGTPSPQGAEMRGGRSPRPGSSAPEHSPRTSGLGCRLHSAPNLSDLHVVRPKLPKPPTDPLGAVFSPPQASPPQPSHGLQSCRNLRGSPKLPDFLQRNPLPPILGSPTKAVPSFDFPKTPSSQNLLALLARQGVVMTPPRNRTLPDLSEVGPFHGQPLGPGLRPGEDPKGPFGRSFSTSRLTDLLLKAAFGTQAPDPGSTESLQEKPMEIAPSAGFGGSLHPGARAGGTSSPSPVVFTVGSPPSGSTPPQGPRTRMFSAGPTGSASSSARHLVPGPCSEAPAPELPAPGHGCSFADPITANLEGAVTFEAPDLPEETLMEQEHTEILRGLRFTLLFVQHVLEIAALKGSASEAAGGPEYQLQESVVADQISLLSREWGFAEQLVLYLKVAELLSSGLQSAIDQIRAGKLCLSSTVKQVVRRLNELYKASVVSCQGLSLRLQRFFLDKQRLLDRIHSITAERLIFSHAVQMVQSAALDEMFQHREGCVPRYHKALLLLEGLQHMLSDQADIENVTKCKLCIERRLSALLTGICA
From the text: (§1) However, the Aurora A/B selectivity ratios derived from our in vitro and in vivo data can be compared to prioritize inhibitors.

[2] = biological target: T2, 363 human kinases (including Aurora A/B/C) (Homo sapiens, UniProt O94806); conditions: PKCnu/PRKD3; for remaining activity at 0.1 µM: 100 nM; for remaining activity at 0.1 µM / remaining activity at 0.5 µM: read-out: % Enzyme Activity (relative to DMSO controls)
T2 sequence (O94806 1-890): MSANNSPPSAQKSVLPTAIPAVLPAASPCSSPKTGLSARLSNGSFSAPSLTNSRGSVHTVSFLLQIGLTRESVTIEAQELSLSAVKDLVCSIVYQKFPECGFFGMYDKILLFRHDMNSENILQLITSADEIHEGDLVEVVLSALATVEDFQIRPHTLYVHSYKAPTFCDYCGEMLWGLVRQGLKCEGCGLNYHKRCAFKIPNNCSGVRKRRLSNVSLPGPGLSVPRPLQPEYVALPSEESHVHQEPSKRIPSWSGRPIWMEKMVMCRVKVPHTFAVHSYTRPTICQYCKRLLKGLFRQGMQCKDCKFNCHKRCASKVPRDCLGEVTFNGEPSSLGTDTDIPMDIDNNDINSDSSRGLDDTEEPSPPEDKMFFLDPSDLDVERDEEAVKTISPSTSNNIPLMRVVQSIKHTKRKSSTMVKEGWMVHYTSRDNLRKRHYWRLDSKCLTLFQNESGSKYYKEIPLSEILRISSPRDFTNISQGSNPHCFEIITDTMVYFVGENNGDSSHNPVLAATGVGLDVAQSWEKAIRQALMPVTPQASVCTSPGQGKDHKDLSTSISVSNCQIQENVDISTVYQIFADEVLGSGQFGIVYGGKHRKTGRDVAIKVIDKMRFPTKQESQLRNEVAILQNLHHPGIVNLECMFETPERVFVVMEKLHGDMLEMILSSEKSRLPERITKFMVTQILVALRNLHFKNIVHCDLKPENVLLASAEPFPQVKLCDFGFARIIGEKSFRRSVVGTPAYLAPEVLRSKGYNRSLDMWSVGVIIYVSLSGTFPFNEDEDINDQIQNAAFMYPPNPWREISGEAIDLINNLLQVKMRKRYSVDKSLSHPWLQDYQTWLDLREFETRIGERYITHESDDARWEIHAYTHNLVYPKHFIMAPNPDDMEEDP
From the text: as §1

[3] = biological target: 363 human kinases (including Aurora A/B/C) (Homo sapiens, UniProt O95819); conditions: HGK/MAP4K4; for remaining activity at 0.1 µM: 100 nM; for remaining activity at 0.1 µM / remaining activity at 0.5 µM: read-out: % Enzyme Activity (relative to DMSO controls)
From the text: as §1

[4] = biological target: 363 human kinases (including Aurora A/B/C) (Homo sapiens, UniProt P22612); conditions: PKAcg; for remaining activity at 0.1 µM: 100 nM; for remaining activity at 0.1 µM / remaining activity at 0.5 µM: read-out: % Enzyme Activity (relative to DMSO controls)
From the text: as §1

[5] = biological target: 363 human kinases (including Aurora A/B/C) (Homo sapiens, UniProt P36507); conditions: MEK2; for remaining activity at 0.1 µM: 100 nM; for remaining activity at 0.1 µM / remaining activity at 0.5 µM: read-out: % Enzyme Activity (relative to DMSO controls)
From the text: as §1

[6] = biological target: T3, 363 human kinases (including Aurora A/B/C) (Homo sapiens, UniProt P42681); conditions: TXK; for remaining activity at 0.1 µM: 100 nM; for remaining activity at 0.1 µM / remaining activity at 0.5 µM: read-out: % Enzyme Activity (relative to DMSO controls)
T3 sequence (P42681 1-527): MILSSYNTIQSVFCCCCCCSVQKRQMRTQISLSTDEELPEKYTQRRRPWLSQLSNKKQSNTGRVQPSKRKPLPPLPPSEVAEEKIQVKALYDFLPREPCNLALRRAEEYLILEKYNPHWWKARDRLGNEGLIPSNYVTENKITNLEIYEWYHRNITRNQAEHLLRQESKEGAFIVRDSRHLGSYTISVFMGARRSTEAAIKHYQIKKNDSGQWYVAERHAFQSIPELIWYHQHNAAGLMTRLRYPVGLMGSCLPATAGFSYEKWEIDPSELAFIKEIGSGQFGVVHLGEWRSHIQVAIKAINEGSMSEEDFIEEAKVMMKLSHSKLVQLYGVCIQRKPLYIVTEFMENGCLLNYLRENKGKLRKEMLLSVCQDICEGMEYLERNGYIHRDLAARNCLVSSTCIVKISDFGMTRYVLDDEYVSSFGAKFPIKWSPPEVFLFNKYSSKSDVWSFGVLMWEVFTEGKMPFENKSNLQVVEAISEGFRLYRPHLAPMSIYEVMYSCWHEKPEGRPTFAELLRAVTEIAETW
From the text: as §1

[7] = biological target: 363 human kinases (including Aurora A/B/C) (Homo sapiens, UniProt Q02750); conditions: MEK1; for remaining activity at 0.1 µM: 100 nM; for remaining activity at 0.1 µM / remaining activity at 0.5 µM: read-out: % Enzyme Activity (relative to DMSO controls)
From the text: as §1

[8] = biological target: 363 human kinases (including Aurora A/B/C) (Homo sapiens, UniProt Q02763); conditions: TIE2/TEK; for remaining activity at 0.1 µM: 100 nM; for remaining activity at 0.1 µM / remaining activity at 0.5 µM: read-out: % Enzyme Activity (relative to DMSO controls)
363 human kinases (including Aurora A/B/C) (Homo sapiens, UniProt Q02763), sequence (Q02763 23-1124): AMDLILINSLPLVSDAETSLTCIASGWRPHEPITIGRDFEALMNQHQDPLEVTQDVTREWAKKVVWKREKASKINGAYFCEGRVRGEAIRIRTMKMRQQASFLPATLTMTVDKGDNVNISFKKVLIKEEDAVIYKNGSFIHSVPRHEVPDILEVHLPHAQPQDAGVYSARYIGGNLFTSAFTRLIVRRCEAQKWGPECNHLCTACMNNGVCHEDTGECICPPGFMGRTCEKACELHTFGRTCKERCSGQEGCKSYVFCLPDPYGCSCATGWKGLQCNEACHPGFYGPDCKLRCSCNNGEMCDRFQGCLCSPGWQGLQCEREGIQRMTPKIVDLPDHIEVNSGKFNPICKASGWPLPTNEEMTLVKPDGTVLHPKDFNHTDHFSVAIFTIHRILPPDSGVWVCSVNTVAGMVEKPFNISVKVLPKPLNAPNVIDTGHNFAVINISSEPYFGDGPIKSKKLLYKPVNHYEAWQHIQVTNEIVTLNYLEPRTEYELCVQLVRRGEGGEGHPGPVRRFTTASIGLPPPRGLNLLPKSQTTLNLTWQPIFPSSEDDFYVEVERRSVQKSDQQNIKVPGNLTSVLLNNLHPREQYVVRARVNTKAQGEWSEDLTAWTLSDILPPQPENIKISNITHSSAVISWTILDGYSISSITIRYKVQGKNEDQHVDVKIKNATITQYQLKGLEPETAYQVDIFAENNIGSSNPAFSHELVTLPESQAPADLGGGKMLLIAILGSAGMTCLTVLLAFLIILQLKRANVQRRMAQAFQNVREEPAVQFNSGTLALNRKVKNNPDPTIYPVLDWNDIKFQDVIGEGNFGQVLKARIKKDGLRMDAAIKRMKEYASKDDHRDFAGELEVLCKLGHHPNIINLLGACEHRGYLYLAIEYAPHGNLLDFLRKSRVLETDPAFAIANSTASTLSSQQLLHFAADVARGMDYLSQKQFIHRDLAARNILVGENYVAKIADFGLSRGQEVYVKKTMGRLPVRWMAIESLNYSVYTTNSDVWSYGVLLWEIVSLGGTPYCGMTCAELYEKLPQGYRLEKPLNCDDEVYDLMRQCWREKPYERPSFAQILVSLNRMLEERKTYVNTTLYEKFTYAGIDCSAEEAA
From the text: as §1

363 human kinases (including Aurora A/B/C) (Homo sapiens, UniProt O95819), sequence (O95819 whole entry): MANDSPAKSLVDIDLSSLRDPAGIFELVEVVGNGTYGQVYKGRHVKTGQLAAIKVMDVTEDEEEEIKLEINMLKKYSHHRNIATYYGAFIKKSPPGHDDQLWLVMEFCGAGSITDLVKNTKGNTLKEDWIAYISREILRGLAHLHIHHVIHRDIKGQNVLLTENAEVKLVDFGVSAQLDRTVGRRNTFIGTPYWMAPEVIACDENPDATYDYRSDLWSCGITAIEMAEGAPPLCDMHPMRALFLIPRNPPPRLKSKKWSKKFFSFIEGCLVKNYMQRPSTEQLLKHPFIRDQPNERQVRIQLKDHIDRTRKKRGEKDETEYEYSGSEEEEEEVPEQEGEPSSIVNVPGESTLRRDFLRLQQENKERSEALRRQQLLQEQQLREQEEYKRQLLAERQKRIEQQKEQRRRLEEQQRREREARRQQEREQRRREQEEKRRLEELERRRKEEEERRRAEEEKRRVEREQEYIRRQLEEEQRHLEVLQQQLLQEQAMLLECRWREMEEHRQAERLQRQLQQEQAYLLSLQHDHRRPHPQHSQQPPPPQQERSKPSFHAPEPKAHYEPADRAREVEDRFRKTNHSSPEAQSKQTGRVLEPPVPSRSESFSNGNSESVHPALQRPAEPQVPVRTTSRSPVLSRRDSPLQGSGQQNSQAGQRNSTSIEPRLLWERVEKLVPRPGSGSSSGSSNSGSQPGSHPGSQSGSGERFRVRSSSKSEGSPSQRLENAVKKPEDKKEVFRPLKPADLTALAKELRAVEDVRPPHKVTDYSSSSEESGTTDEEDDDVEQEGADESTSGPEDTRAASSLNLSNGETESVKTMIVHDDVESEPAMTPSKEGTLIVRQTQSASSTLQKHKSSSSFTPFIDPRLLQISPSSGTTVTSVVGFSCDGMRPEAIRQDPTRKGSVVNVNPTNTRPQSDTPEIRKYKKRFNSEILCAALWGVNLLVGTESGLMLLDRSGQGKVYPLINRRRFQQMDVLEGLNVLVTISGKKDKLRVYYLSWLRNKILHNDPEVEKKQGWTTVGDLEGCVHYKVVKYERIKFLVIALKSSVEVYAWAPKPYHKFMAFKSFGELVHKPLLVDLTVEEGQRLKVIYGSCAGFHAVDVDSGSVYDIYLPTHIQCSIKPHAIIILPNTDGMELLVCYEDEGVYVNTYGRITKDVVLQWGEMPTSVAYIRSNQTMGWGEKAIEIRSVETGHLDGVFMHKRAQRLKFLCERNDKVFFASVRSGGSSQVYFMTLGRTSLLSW
363 human kinases (including Aurora A/B/C) (Homo sapiens, UniProt Q02750), sequence (Q02750 whole entry): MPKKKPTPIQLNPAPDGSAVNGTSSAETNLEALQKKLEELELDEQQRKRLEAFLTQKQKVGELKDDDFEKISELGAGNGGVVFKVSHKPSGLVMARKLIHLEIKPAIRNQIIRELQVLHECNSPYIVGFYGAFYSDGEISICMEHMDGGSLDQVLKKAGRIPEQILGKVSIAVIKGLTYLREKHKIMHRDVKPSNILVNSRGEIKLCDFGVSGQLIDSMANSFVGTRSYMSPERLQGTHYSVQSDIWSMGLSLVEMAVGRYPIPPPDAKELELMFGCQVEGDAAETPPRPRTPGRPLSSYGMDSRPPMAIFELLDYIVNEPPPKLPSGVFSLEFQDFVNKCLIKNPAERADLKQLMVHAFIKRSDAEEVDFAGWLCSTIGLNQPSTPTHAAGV
363 human kinases (including Aurora A/B/C) (Homo sapiens, UniProt P36507), sequence (P36507 whole entry): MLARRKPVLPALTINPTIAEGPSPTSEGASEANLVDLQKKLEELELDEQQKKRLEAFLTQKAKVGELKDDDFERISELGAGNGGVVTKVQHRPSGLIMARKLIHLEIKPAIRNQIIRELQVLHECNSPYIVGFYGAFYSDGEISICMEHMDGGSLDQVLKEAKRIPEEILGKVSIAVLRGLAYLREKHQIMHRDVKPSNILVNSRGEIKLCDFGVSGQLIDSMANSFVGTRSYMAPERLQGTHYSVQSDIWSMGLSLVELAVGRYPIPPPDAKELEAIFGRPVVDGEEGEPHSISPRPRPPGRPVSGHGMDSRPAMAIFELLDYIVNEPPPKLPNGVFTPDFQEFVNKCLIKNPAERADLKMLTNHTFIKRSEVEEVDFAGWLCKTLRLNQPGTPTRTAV
363 human kinases (including Aurora A/B/C) (Homo sapiens, UniProt P22612), sequence (P22612 whole entry): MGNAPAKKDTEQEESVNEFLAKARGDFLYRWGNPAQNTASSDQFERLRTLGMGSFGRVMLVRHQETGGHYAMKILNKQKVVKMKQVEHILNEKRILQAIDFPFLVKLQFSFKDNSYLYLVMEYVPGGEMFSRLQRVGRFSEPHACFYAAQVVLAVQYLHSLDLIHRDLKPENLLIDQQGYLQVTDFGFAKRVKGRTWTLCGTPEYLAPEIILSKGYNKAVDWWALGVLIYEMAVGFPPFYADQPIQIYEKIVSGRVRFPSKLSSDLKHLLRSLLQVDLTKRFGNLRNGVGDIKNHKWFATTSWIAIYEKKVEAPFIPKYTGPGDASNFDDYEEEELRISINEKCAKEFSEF

Row | Compound | remaining activity at 0.1 µM [1] | remaining activity at 0.1 µM [2] | remaining activity at 0.1 µM [3] | remaining activity at 0.1 µM [4] | remaining activity at 0.1 µM [5] | remaining activity at 0.1 µM [6] | remaining activity at 0.1 µM [7] | remaining activity at 0.1 µM [8] | remaining activity at 0.5 µM ([1]; 500 nM) | remaining activity at 0.5 µM ([2]; 500 nM) | remaining activity at 0.5 µM ([3]; 500 nM) | remaining activity at 0.5 µM ([4]; 500 nM) | remaining activity at 0.5 µM ([5]; 500 nM) | remaining activity at 0.5 µM ([6]; 500 nM) | remaining activity at 0.5 µM ([7]; 500 nM) | remaining activity at 0.5 µM ([8]; 500 nM) | further results
1 | CCn1cc(-c2ccnc3[nH]c(-c4cccc(CN(C)C)c4)cc23)c(-c2ccc(NC(=O)N(C)C)cc2)n1 [GSK1070916] | 111% | 76.8% | 87.5% | 102% | 98.2% | 86.3% | 102% | 39.1% | – | – | – | – | – | – | – | – | –
2 | O=C(O)[C@]1(Cc2cccc(Nc3nccs3)n2)CC[C@@H](Oc2cccc(Cl)c2F)CC1 [MK-5108] | 107% | 97.1% | 95.5% | 89.9% | 95.6% | 35.6% | 93.4% | 37.9% | 104% | 87.9% | 72.9% | 103% | 90.3% | 10.5% | 96.2% | 9.27% | –
3 | O=C(c1cccc(Cl)c1F)N1CCN(Cc2cccc(Nc3nccs3)n2)CC1 [MK-8745] | – | – | – | – | – | – | – | – | 93.8% | 79% | 89.1% | 97.7% | 95.2% | 80.3% | 97% | 98.2% | % Enzyme Activity (relative to DMSO controls) ([1]; 500 nM): 92.67%; % Enzyme Activity (relative to DMSO controls) ([2]; 500 nM): 75.68%; % Enzyme Activity (relative to DMSO controls) ([3]; 500 nM): 88.10%; % Enzyme Activity (relative to DMSO controls) ([4]; 500 nM): 97.46%; % Enzyme Activity (relative to DMSO controls) ([5]; 500 nM): 93.13%; % Enzyme Activity (relative to DMSO controls) ([6]; 500 nM): 80.24%; % Enzyme Activity (relative to DMSO controls) ([7]; 500 nM): 96.32%; % Enzyme Activity (relative to DMSO controls) ([8]; 500 nM): 96.47%
